Holding throughout (assay): relative viability (nuclei count vs DMSO), 5 days (fraction); higher = more cells survive
Compound in experiment [1]: O=C(Nc1cc(C(F)(F)F)cc(C(F)(F)F)c1)c1cc(Cl)ccc1O [IMD-0354] + Cc1nc(NC(=O)N2CCC[C@H]2C(N)=O)sc1-c1ccnc(C(C)(C)C(F)(F)F)c1 [Alpelisib] (partner 2 µM)
In a few lines:
(§1)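 Lung cancer cell lines in 1536-well plates got either a single drug or a fixed anchor-drug dose together with five library-drug doses (not always all listed) in √10 steps, by pin tool, on the day after seeding. Nuclei were counted after 5 days, and relative viability is the treated-to-vehicle ratio of nuclei counts. Values are medians of duplicate plates.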

Compound in experiment [2]: Cc1cnc(CNC(=O)c2c(=O)c3ccc(N4CCCN(C)CC4)nc3n3c2sc2ccccc23)cn1 [CX-5461] + O=C(CCCCCCC(=O)Nc1ccccc1)NO [Vorinostat] (partner 1 µM)
The method, boiled down:
as §1

Compound in experiment [3]: Cc1cnc(CNC(=O)c2c(=O)c3ccc(N4CCCN(C)CC4)nc3n3c2sc2ccccc23)cn1 [CX-5461] + Nc1ncn([C@H]2C[C@H](O)[C@@H](CO)O2)c(=O)n1 [Decitabine] (partner 2 µM)
In a few lines: as §1

Compound in experiment [4]: O=C(Nc1cc(C(F)(F)F)cc(C(F)(F)F)c1)c1cc(Cl)ccc1O [IMD-0354] + CS(=O)(=O)CCNCc1ccc(-c2ccc3ncnc(Nc4ccc(OCc5cccc(F)c5)c(Cl)c4)c3c2)o1 [Lapatinib] (partner 2 µM)
In a few lines:
as §1

The text below walks through data of the supplement of paper PMC10307832.

On to LXF-289, for which the relative viability in experiment [1] (first compound 0.04 µM) stood at 1.09; in experiment [1] (first compound 0.1265 µM), 1.06; in experiment [1] (first compound 0.4 µM) it was 0.711; in experiment [1] (first compound 1.265 µM) it was 0.265; in experiment [1] (first compound 4 µM), 0.0502; in experiment [2] (first compound 0.01 µM), 0.803. For the same cell line, the relative viability in experiment [2] (first compound 0.03162 µM) stood at 0.744; in experiment [2] (first compound 0.1 µM) it was 0.635; in experiment [2] (first compound 1 µM), 0.544; in experiment [3] (first compound 0.01 µM) it was 0.412; in experiment [3] (first compound 0.03162 µM), 0.377; in experiment [3] (first compound 0.1 µM) it was 0.404. For the same cell line, the relative viability was determined as 0.351 in experiment [3] (first compound 1 µM); 0.948 in experiment [4] (first compound 0.04 µM); 0.895 in experiment [4] (first compound 0.1265 µM); 0.835 in experiment [4] (first compound 0.4 µM); 0.301 in experiment [4] (first compound 1.265 µM); 0.188 in experiment [4] (first compound 4 µM).

Turning to NCI-H23, the relative viability in experiment [1] (first compound 0.04 µM) was 0.802; in experiment [1] (first compound 0.1265 µM), 0.695; in experiment [1] (first compound 0.4 µM) it was 0.412; in experiment [1] (first compound 1.265 µM) it was 0.435; in experiment [1] (first compound 4 µM), 0.243; in experiment [2] (first compound 0.01 µM) it was 0.755. Moreover, the relative viability was found to be 0.577 in experiment [2] (first compound 0.03162 µM); 0.492 in experiment [2] (first compound 0.1 µM); 0.458 in experiment [2] (first compound 0.3162 µM); 0.3 in experiment [2] (first compound 1 µM); 0.371 in experiment [3] (first compound 0.01 µM); 0.344 in experiment [3] (first compound 0.03162 µM). Besides, the relative viability in experiment [3] (first compound 0.1 µM) is 0.363; in experiment [3] (first compound 0.3162 µM), 0.299; in experiment [3] (first compound 1 µM) it was 0.268; in experiment [4] (first compound 0.04 µM) it was 0.996; in experiment [4] (first compound 0.1265 µM), 1.14; in experiment [4] (first compound 0.4 µM) it was 0.475. Besides, the results for the relative viability in experiment [4] (first compound 1.265 µM) and in experiment [4] (first compound 4 µM) were 0.183 and 0.237, respectively.

As for NCI-H322M, the relative viability in experiment [1] (first compound 0.04 µM) amounted to 0.717; in experiment [1] (first compound 0.1265 µM) it was 0.607; in experiment [1] (first compound 0.4 µM) it was 0.695; in experiment [1] (first compound 1.265 µM), 0.834; in experiment [1] (first compound 4 µM) it was 0.475; in experiment [2] (first compound 0.01 µM), 0.894. Further, the relative viability in experiment [2] (first compound 0.03162 µM) came out at 0.802; in experiment [2] (first compound 0.1 µM), 0.9; in experiment [2] (first compound 0.3162 µM), 0.569; in experiment [2] (first compound 1 µM), 0.743; in experiment [3] (first compound 0.01 µM), 0.716; in experiment [3] (first compound 0.03162 µM), 0.701. For the same cell line, the relative viability was determined as 0.637 in experiment [3] (first compound 0.1 µM); 0.572 in experiment [3] (first compound 0.3162 µM); 0.614 in experiment [3] (first compound 1 µM); 0.651 in experiment [4] (first compound 0.04 µM); 0.584 in experiment [4] (first compound 0.1265 µM); 0.57 in experiment [4] (first compound 0.4 µM). Besides, the relative viability amounted to 0.802 in experiment [4] (first compound 1.265 µM) and 0.342 in experiment [4] (first compound 4 µM).

Take NCI-H358: the relative viability stood at 0.944 in experiment [1] (first compound 0.04 µM); 0.746 in experiment [1] (first compound 0.1265 µM); 0.429 in experiment [1] (first compound 0.4 µM); 0.223 in experiment [1] (first compound 1.265 µM); 0.306 in experiment [1] (first compound 4 µM); 0.745 in experiment [2] (first compound 0.01 µM). In addition, the relative viability in experiment [2] (first compound 0.03162 µM) came out at 0.78; in experiment [2] (first compound 0.1 µM), 0.701; in experiment [2] (first compound 0.3162 µM) it was 0.27; in experiment [2] (first compound 1 µM), 0.402; in experiment [3] (first compound 0.01 µM), 0.206; in experiment [3] (first compound 0.03162 µM), 0.195. The relative viability in experiment [3] (first compound 0.1 µM) was determined as 0.151; in experiment [3] (first compound 0.3162 µM), 0.149; in experiment [3] (first compound 1 µM), 0.121; in experiment [4] (first compound 0.04 µM), 0.541; in experiment [4] (first compound 0.1265 µM) it was 0.441; in experiment [4] (first compound 0.4 µM), 0.413. Besides, the relative viability in experiment [4] (first compound 1.265 µM) came out at 0.273; in experiment [4] (first compound 4 µM), 0.192.
